Results from patent US20230263822A1, “MODULATION OF FACTOR 11 EXPRESSION” (Ionis Pharmaceuticals, Inc., priority 2008, published 2023).
Strand notation (5' to 3'): a small letter for the sugar, then the base; units joined by * are phosphorothioate-linked, units joined directly phosphodiester-linked; [ ] holds rarer units or linkages, { } end groups; capitals alone tell only the bases. e = 2'-O-(2-methoxyethyl) (MOE); [5mC] = 5-methylcytosine; d = 2'-deoxy (DNA)

Tests used:
[1] = Tolerability in Sprague-Dawley rats: liver function (Example 44); format: in vivo; parameters: Albumin: unit not given here; details: 50 mg/kg s.c. twice per week for 6 weeks, plasma
[2] = Tolerability in Sprague-Dawley rats: hematology assays (Example 44); format: in vivo; details: 50 mg/kg s.c. twice per week for 6 weeks, blood
Factor 11 protein = Factor 11 protein in monkey plasma by sandwich ELISA (Example 45); format: in vivo, cynomolgus monkeys; details: escalating dose regimen; for Inhibition of Factor 11 protein relative to the PBS control: plasma ELISA
Procedure: (§1) Groups, each consisting of two male and three female monkeys, were injected subcutaneously with ISIS 416838, ISIS 416850, ISIS 416858, ISIS 416864, or ISIS 417002 in escalating doses. Antisense oligonucleotide was administered to the monkeys at 5 mg/kg three times per a week for week 1; 5 mg/kg twice per week for weeks 2 and 3; 10 mg/kg three times per week for week 4; 10 mg/kg twice per week for weeks 5 and 6; 25 mg/kg three times per week for week 7; and 25 mg/kg twice per week for weeks 8, 9, 10, 11, and 12. One control group, consisting of two male and three female monkeys, was injected subcutaneously with PBS according to the same dosing regimen. An additional experimental group, consisting of two male and three female monkeys, was injected subcutaneously with ISIS 416850 in a chronic, lower dose regimen. Antisense oligonucleotide was administered to the monkeys at 5 mg/kg three times per week for week 1; 5 mg/kg twice per week for week 2 and 3; 10 mg/kg three times per week for week 4; and 10 mg/kg twice per week for weeks 5 to 12. Body weights were measured weekly. Blood samples were collected 14 days and 5 days before the start of treatment and subsequently once per week for Factor 11 protein activity analysis in plasma, fibrinogen measurement, PT and aPTT measurements, bleeding times, and measurement of various hematologic factors. On day 85, the monkeys were euthanized by exsanguination while under deep anesthesia, and organs harvested for further analysis.
Plasma samples from all monkey groups taken on different days were analyzed by a sandwich-style ELISA assay (Affinity Biologicals Inc.) using an affinity-purified polyclonal anti-Factor 11 antibody as the capture antibody and a peroxidase-conjugated polyclonal anti-Factor 11 antibody as the detecting antibody. Monkey plasma was diluted 1:50 for the assay. Peroxidase activity was expressed by incubation with the substrate o-phenylenediamine. The color produced was quantified using a microplate reader at 490 nm and was considered to be proportional to the concentration of Factor 11 in the samples.
The results are presented in Table 115, expressed as percentage reduction relative to that of the PBS control.

fibrinogen = assay: Fibrinogen assay (Example 45); format: in vivo, cynomolgus monkeys; details: plasma, escalating dose regimen
Procedure: as §1
Nine parts of fresh monkey plasma was collected into one part of trisodium citrate. The samples were evaluated of fibrinogen content using an ACL 9000 coagulation instrument (Instrumentation Laboratory, Italy). The ISIS oligonucleotide, ISIS 416850, given with the chronic dose regimen is distinguished from the other oligonucleotides with an asterisk (*).

[3] = mouse, in vivo
Procedure: A control group of five mice was injected subcutaneously with PBS for 2 weeks. All experimental groups (i.e. ASO treated mice at 2, 4, 6 weeks) were compared to the control group (i.e. PBS, 2 weeks).
Blood obtained from all mice groups were sent to Antech Diagnostics for hematocrit (HCT), mean corpuscular volume (MCV), mean corpuscular hemoglobin (MCH), and mean corpuscular hemoglobin concentration (MCHC) measurements and analyses, as well as measurements of the various blood cells, such as WBC (neutrophils, lymphocytes, and monocytes), RBC, and platelets, and total hemoglobin content.

[4] = Tolerability in Sprague-Dawley rats: liver function (Example 35); details: plasma, 50 mg/kg s.c. twice per week for 6 weeks

In the case of “ISIS 449710: 3-8-3, 4-8-4, 2-10-2, 3-10-3 or 4-10-4 MOE microwalk gapmer (Table 46) (antisense e[5mC]*eA*e[5mC]*dA*dG*dT*dT*dT*d[5mC]*dT*dG*dG*d[5mC]*eA*eG*eG)”, the ALT [1] is reported as 36 IU/L, the AST [1] is reported as 211 IU/L and the Albumin [1] is reported as 2.9. It also gave a Bilirubin [1] of 0.1 mg/dL, a Platelets [2] of 509 nL⁻¹ and an RBC [2] of 6.3 pL⁻¹. For the same substance, the WBC [2] was 13 nL⁻¹, the hematocrit [2] was 41% and the hemoglobin [2] was 12.5 g/dL. It also gave a lymphocytes [2] of 91%, a monocytes [2] of 2% and a neutrophils [2] of 6%.

For “ISIS 449709: 3-8-3, 4-8-4, 2-10-2, 3-10-3 or 4-10-4 MOE microwalk gapmer (Table 46) (antisense eG*e[5mC]*eA*e[5mC]*dA*dG*dT*dT*dT*d[5mC]*dT*dG*dG*d[5mC]*eA*eG*eG*e[5mC])”, the ALT [1] was 63 IU/L, the AST [1] was 126 IU/L and the Albumin [1] was 3.1. It also gave a Bilirubin [1] of 0.2 mg/dL, a Platelets [2] of 631 nL⁻¹ and an RBC [2] of 6.9 pL⁻¹. The WBC [2] was 14 nL⁻¹, the hematocrit [2] was 41% and the hemoglobin [2] was 12.6 g/dL. For the same substance, the lymphocytes [2] was 91%, the monocytes [2] was 3% and the neutrophils [2] was 5%.

“ISIS 449711: 3-8-3, 4-8-4, 2-10-2, 3-10-3 or 4-10-4 MOE microwalk gapmer (Table 46) (antisense eA*e[5mC]*dA*dG*dT*dT*dT*d[5mC]*dT*dG*dG*d[5mC]*eA*eG)” gave an ALT [1] of 32 IU/L, an AST [1] of 163 IU/L and an Albumin [1] of 2.9. It also gave a Bilirubin [1] of 0.1 mg/dL, a Platelets [2] of 919 nL⁻¹ and an RBC [2] of 6.4 pL⁻¹. For the same substance, the WBC [2] was 13 nL⁻¹, the hematocrit [2] was 43% and the hemoglobin [2] was 12.6 g/dL. It also gave a lymphocytes [2] of 90%, a monocytes [2] of 2% and a neutrophils [2] of 7%.

For “ISIS 416838: MOE gapmer, nucleobases 1018 to 1042 of SEQ ID NO: 1 (Table 6) (antisense GCAACCGGGATGATGAGTGC; MOE gapmer, wing and gap sizes not given here)”, the “Inhibition of Factor 11 protein relative to the PBS control” value (Factor 11 protein; day 8) was 3%, the “Inhibition of Factor 11 protein relative to the PBS control” value (Factor 11 protein; day 15) was 4% and the “Inhibition of Factor 11 protein relative to the PBS control” value (Factor 11 protein; day 22) was 5%. For the same substance, the “Inhibition of Factor 11 protein relative to the PBS control” value (Factor 11 protein; day 29) was 8%, the “Inhibition of Factor 11 protein relative to the PBS control” value (Factor 11 protein; day 36) was 11% and the “Inhibition of Factor 11 protein relative to the PBS control” value (Factor 11 protein; day 43) was 5%. For the same substance, the “Inhibition of Factor 11 protein relative to the PBS control” value (Factor 11 protein; day 50) was 8%, the “Inhibition of Factor 11 protein relative to the PBS control” value (Factor 11 protein; day 57) was 10% and the “Inhibition of Factor 11 protein relative to the PBS control” value (Factor 11 protein; day 64) was 11%. For the same substance, the “Inhibition of Factor 11 protein relative to the PBS control” value (Factor 11 protein; day 71) was 12%, the “Inhibition of Factor 11 protein relative to the PBS control” value (Factor 11 protein; day 78) was 10% and the “Inhibition of Factor 11 protein relative to the PBS control” value (Factor 11 protein; day 85) was 10%. The “Inhibition of Factor 11 protein relative to the PBS control” value (Factor 11 protein; day −5) was 0%, the “Inhibition of Factor 11 protein relative to the PBS control” value (Factor 11 protein; day −14) was 0% and the fibrinogen levels (fibrinogen; day 8) was 209 mg/dL. For the same substance, the fibrinogen levels (fibrinogen; day 15) was 198 mg/dL, the fibrinogen levels (fibrinogen; day 22) was 183 mg/dL and the fibrinogen levels (fibrinogen; day 29) was 184 mg/dL. The fibrinogen levels (fibrinogen; day 36) was 182 mg/dL, the fibrinogen levels (fibrinogen; day 43) was 186 mg/dL and the fibrinogen levels (fibrinogen; day 50) was 216 mg/dL. For the same substance, the fibrinogen levels (fibrinogen; day 57) was 190 mg/dL, the fibrinogen levels (fibrinogen; day 64) was 190 mg/dL and the fibrinogen levels (fibrinogen; day 71) was 199 mg/dL. It also gave a fibrinogen levels (fibrinogen; day 78) of 189 mg/dL, a fibrinogen levels (fibrinogen; day 85) of 196 mg/dL and a fibrinogen levels (fibrinogen; day −5) of 205 mg/dL. The fibrinogen levels (fibrinogen; day −14) was 251 mg/dL, the RBC count [3] was 8 cells/pL and the ALT [4] was 5 IU/L. For the same substance, the AST [4] was 2 IU/L, the Albumin [4] was 2 and the Bilirubin [4] was 4 mg/dL.

With “ISIS 449708: 3-8-3, 4-8-4, 2-10-2, 3-10-3 or 4-10-4 MOE microwalk gapmer (Table 46) (antisense eA*e[5mC]*eA*dG*dT*dT*dT*d[5mC]*dT*dG*dG*e[5mC]*eA*eG)” the ALT [1] was 25 IU/L, the AST [1] was 90 IU/L and the Albumin [1] was 3.2. It also gave a Bilirubin [1] of 0.1 mg/dL, a Platelets [2] of 925 nL⁻¹ and an RBC [2] of 6.6 pL⁻¹. It also gave a WBC [2] of 22 nL⁻¹, a hematocrit [2] of 40% and a hemoglobin [2] of 12.2 g/dL. The lymphocytes [2] was 92%, the monocytes [2] was 2% and the neutrophils [2] was 6%.

With “ISIS 449707: 3-8-3, 4-8-4, 2-10-2, 3-10-3 or 4-10-4 MOE microwalk gapmer (Table 46) (antisense e[5mC]*eA*e[5mC]*eA*dG*dT*dT*dT*d[5mC]*dT*dG*dG*e[5mC]*eA*eG*eG)” the ALT [1] was 61 IU/L, the AST [1] was 199 IU/L and the Albumin [1] was 3.1. For the same substance, the Bilirubin [1] was 0.2 mg/dL, the Platelets [2] was 722 nL⁻¹ and the RBC [2] was 6.0 pL⁻¹. The WBC [2] was 20 nL⁻¹, the hematocrit [2] was 40% and the hemoglobin [2] was 12.0 g/dL. The lymphocytes [2] was 91%, the monocytes [2] was 2% and the neutrophils [2] was 6%.

For “ISIS 416858: MOE gapmer, nucleobases 1275 to 1318 of SEQ ID NO: 1 (Table 8) (antisense ACGGCATTGGTGCACAGTTT; MOE gapmer, wing and gap sizes not given here)”, the “Factor 11 protein levels in plasma” value (Factor 11 protein; cynomolgus monkeys, ELISA) was “time-dependent decrease in protein levels”, the “Inhibition of Factor 11 protein relative to the PBS control” value (Factor 11 protein; day 8) was 6% and the “Inhibition of Factor 11 protein relative to the PBS control” value (Factor 11 protein; day 15) was 16%. The “Inhibition of Factor 11 protein relative to the PBS control” value (Factor 11 protein; day 22) was 23%, the “Inhibition of Factor 11 protein relative to the PBS control” value (Factor 11 protein; day 29) was 28% and the “Inhibition of Factor 11 protein relative to the PBS control” value (Factor 11 protein; day 36) was 35%. For the same substance, the “Inhibition of Factor 11 protein relative to the PBS control” value (Factor 11 protein; day 43) was 39%, the “Inhibition of Factor 11 protein relative to the PBS control” value (Factor 11 protein; day 50) was 49% and the “Inhibition of Factor 11 protein relative to the PBS control” value (Factor 11 protein; day 57) was 60%. For the same substance, the “Inhibition of Factor 11 protein relative to the PBS control” value (Factor 11 protein; day 64) was 68%, the “Inhibition of Factor 11 protein relative to the PBS control” value (Factor 11 protein; day 71) was 71% and the “Inhibition of Factor 11 protein relative to the PBS control” value (Factor 11 protein; day 78) was 73%. For the same substance, the “Inhibition of Factor 11 protein relative to the PBS control” value (Factor 11 protein; day 85) was 78%, the “Inhibition of Factor 11 protein relative to the PBS control” value (Factor 11 protein; day −5) was 0% and the “Inhibition of Factor 11 protein relative to the PBS control” value (Factor 11 protein; day −14) was 0%. The fibrinogen levels (fibrinogen; day 8) was 246 mg/dL, the fibrinogen levels (fibrinogen; day 15) was 219 mg/dL and the fibrinogen levels (fibrinogen; day 22) was 222 mg/dL. It also gave a fibrinogen levels (fibrinogen; day 29) of 220 mg/dL, a fibrinogen levels (fibrinogen; day 36) of 225 mg/dL and a fibrinogen levels (fibrinogen; day 43) of 229 mg/dL. It also gave a fibrinogen levels (fibrinogen; day 50) of 259 mg/dL, a fibrinogen levels (fibrinogen; day 57) of 225 mg/dL and a fibrinogen levels (fibrinogen; day 64) of 236 mg/dL. For the same substance, the fibrinogen levels (fibrinogen; day 71) was 239 mg/dL, the fibrinogen levels (fibrinogen; day 78) was 234 mg/dL and the fibrinogen levels (fibrinogen; day 85) was 243 mg/dL. For the same substance, the fibrinogen levels (fibrinogen; day −5) was 246 mg/dL, the fibrinogen levels (fibrinogen; day −14) was 277 mg/dL and the RBC count [3] was 9 cells/pL. For the same substance, the ALT [4] was 13 IU/L, the AST [4] was 4 IU/L and the Albumin [4] was 2. For the same substance, the Bilirubin [4] was 4 mg/dL.
